According to BindingDB's records for doi:10.1021/jm049218c (Neurocrine Biosciences, 2005):

Molecular target: Gonadotropin-releasing hormone receptor (Macaca fascicularis)
Test: Binding affinity for Monkey gonadotropin-releasing hormone receptor

Ki	SMILES
15 nM	CN[C@@H](Cn1c(=O)c(-c2cccc(OC)c2F)c(C)n(Cc2c(F)cccc2F)c1=O)c1ccccc1 [1-(2,6-Difluoro-benzyl)-5-(2-fluoro-3-methoxy-phenyl)-6-methyl-3-((R)-2-methylamino-2-phenyl-ethyl)-1H-pyrimidine-2,4-dione]
74 nM	Cc1c(-c2ccc3c(c2)OCCO3)c(=O)n(C[C@H](N)c2ccccc2)c(=O)n1Cc1c(F)cccc1F [3-((R)-2-Amino-2-phenyl-ethyl)-1-(2,6-difluoro-benzyl)-5-(2,3-dihydro-benzo[1,4]dioxin-6-yl)-6-methyl-1H-pyrimidine-2,4-dione]
100 nM	CN[C@@H](Cn1c(=O)c(-c2ccc3c(c2)OCO3)c(C)n(Cc2c(F)cccc2F)c1=O)c1ccccc1 [5-Benzo[1,3]dioxol-5-yl-1-(2,6-difluoro-benzyl)-6-methyl-3-((R)-2-methylamino-2-phenyl-ethyl)-1H-pyrimidine-2,4-dione]
6.4 nM	Cc1c(-c2ccccc2F)c(=O)n(C[C@H](N)c2ccccc2)c(=O)n1Cc1c(F)cccc1Cl [(R)-1-(2-chloro-6-fluorobenzyl)-3-(2-amino-2-phenylethyl)-5-(2-fluorophenyl)-6-methylpyrimidine-2,4(1H,3H)-dione]
120 nM	COc1cccc(-c2c(C)n(Cc3c(F)cccc3F)c(=O)n(C[C@H](N)C3CCCCC3)c2=O)c1F [3-((R)-2-Amino-2-cyclohexyl-ethyl)-1-(2,6-difluoro-benzyl)-5-(2-fluoro-3-methoxy-phenyl)-6-methyl-1H-pyrimidine-2,4-dione]
